Assay results: ChEMBL document CHEMBL5291721, “A preclinical secondary pharmacology resource illuminates target-adverse drug reaction associations of marketed drugs” (Nat Commun, 2023)

Experiments:
[1] = biological target: T1, Adenosine receptor A1 (Homo sapiens, UniProt P30542)
T1 sequence (P30542 whole entry): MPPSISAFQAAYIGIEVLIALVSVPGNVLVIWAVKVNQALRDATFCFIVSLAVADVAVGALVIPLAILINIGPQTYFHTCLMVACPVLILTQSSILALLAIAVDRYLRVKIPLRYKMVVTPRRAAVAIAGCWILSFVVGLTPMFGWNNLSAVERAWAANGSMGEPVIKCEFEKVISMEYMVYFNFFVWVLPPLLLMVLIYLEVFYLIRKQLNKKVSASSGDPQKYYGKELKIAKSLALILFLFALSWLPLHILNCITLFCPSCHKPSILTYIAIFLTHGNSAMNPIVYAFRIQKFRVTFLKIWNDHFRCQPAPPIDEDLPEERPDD

[2] = biological target: Beta-2 adrenergic receptor (Homo sapiens, UniProt P07550)
Sequence of Beta-2 adrenergic receptor (P07550 whole entry): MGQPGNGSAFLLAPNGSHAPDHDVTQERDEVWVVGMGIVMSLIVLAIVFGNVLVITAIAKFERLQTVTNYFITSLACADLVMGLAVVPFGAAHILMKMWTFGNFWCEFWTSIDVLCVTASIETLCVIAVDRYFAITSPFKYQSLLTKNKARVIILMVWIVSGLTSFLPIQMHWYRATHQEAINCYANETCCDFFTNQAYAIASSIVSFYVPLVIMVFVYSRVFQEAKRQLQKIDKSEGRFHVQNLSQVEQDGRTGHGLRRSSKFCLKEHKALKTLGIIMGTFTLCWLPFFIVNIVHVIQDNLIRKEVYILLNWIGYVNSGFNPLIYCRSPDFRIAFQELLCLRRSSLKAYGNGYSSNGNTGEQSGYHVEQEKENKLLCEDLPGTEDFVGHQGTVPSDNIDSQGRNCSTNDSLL

[3] = biological target: T2, Type-1 angiotensin II receptor (Homo sapiens, UniProt P30556)
T2 sequence (P30556 whole entry): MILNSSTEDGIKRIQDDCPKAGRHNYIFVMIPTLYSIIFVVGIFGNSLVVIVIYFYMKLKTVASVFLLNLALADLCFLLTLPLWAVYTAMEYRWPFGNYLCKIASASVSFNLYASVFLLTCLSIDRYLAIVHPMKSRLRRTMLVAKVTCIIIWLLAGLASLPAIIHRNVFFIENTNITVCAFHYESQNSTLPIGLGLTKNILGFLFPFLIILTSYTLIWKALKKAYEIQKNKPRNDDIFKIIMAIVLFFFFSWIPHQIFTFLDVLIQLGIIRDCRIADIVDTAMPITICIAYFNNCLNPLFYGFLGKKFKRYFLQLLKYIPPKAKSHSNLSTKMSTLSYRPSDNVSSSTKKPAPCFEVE

[4] = biological target: Voltage-dependent L-type calcium channel subunit alpha-1C (Rattus norvegicus, UniProt P22002); format: functional
Sequence of Voltage-dependent L-type calcium channel subunit alpha-1C (P22002 whole entry): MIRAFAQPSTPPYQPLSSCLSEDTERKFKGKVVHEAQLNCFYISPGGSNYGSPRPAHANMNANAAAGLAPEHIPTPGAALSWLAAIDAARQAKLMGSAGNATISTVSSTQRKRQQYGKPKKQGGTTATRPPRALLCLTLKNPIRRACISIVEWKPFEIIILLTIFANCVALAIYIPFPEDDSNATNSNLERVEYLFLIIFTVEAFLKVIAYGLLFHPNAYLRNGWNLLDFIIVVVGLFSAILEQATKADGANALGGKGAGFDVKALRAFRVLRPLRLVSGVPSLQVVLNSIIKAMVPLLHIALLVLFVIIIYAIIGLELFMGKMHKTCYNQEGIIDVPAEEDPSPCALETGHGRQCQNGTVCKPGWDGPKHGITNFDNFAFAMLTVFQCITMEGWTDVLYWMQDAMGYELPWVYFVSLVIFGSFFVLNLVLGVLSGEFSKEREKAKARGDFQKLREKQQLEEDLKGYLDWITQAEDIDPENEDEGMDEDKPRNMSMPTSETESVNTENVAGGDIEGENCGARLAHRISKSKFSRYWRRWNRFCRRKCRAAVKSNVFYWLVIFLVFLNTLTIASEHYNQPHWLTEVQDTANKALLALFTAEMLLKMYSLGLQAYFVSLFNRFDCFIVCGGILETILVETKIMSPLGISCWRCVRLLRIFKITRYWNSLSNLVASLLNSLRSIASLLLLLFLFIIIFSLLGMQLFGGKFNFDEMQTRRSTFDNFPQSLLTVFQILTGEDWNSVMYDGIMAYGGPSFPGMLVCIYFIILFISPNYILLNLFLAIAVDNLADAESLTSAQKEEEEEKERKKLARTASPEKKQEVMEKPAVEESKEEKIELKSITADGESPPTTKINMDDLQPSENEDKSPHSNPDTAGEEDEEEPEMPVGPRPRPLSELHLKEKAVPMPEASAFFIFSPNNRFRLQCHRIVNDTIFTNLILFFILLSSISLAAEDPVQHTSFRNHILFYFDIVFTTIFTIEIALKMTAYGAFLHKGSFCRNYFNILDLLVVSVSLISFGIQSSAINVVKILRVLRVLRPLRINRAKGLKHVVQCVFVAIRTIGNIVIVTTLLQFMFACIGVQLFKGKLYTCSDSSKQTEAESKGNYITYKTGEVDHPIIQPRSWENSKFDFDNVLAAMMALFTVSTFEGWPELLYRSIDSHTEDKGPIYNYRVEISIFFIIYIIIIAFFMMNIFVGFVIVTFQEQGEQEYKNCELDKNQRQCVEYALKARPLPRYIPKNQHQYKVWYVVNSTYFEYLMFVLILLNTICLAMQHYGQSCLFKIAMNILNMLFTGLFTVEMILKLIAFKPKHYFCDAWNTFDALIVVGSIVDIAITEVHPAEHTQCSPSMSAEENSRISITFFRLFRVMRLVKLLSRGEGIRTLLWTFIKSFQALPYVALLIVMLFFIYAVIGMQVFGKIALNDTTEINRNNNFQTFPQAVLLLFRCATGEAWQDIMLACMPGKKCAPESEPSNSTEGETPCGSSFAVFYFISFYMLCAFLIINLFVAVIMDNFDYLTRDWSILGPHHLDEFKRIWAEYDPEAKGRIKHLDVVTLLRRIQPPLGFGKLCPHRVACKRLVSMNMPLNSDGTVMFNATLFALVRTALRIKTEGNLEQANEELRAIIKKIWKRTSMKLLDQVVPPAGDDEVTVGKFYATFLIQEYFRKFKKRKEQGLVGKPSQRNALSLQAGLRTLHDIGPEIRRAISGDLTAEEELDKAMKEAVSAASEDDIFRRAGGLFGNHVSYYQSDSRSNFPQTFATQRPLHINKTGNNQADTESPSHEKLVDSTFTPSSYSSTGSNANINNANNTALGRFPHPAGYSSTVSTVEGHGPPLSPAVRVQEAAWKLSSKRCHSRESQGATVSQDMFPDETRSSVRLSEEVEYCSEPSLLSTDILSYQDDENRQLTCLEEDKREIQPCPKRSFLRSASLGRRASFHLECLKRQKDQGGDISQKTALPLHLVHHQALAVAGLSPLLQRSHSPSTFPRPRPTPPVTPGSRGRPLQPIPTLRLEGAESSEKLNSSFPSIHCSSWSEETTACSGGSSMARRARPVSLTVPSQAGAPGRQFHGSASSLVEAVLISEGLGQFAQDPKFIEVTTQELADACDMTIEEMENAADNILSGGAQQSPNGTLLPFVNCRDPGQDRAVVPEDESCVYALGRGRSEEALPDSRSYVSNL

[5] = biological target: T3, Muscarinic acetylcholine receptor M1 (Homo sapiens, UniProt P11229); format: functional
T3 sequence (P11229 whole entry): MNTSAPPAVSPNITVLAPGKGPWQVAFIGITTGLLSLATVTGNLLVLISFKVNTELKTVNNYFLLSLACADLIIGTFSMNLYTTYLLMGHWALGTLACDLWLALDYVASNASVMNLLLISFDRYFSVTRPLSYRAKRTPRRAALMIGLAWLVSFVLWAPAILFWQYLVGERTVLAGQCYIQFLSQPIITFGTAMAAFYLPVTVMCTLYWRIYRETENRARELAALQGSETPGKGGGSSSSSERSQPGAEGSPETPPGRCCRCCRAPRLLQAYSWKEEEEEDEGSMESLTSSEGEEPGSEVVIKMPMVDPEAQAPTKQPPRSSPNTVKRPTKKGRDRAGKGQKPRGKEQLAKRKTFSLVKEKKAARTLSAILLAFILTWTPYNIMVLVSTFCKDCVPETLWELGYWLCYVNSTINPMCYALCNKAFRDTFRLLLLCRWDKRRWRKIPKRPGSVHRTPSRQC

[6] = biological target: T4, 5-hydroxytryptamine receptor 2C (Homo sapiens, UniProt P28335)
T4 sequence (P28335 whole entry): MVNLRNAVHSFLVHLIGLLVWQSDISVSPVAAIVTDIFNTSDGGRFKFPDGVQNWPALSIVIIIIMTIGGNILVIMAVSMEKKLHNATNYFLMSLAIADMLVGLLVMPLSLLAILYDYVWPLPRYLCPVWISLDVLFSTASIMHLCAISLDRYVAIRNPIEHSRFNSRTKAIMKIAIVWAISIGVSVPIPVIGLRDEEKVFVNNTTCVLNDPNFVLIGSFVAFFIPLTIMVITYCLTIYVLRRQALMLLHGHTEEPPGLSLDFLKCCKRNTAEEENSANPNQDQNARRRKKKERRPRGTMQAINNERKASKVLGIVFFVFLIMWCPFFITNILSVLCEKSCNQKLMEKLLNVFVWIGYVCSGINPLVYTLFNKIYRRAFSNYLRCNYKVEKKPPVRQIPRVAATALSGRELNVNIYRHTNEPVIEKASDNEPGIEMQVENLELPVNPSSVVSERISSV

[7] = biological target: T5, 5-hydroxytryptamine receptor 3A (Homo sapiens, UniProt P46098); format: functional
T5 sequence (P46098 whole entry): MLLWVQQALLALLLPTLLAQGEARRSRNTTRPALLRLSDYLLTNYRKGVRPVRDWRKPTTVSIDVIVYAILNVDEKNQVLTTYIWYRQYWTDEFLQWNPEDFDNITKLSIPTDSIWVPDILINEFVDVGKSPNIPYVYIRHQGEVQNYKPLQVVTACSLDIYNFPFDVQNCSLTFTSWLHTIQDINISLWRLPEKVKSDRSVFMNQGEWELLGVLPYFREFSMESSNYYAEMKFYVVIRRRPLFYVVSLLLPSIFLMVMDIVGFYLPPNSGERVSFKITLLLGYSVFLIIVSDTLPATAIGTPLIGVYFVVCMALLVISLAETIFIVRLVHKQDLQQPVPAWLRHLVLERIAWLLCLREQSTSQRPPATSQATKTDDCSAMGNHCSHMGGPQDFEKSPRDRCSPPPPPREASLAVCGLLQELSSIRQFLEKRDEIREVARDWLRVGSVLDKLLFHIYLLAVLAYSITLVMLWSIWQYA

[8] = biological target: Mu-type opioid receptor (Homo sapiens, UniProt P35372); test: biochemical; format: functional
[9] = biological target: 3',5'-cyclic-AMP phosphodiesterase 4D (Homo sapiens, UniProt Q08499); format: functional
Sequence of 3',5'-cyclic-AMP phosphodiesterase 4D (Q08499 whole entry): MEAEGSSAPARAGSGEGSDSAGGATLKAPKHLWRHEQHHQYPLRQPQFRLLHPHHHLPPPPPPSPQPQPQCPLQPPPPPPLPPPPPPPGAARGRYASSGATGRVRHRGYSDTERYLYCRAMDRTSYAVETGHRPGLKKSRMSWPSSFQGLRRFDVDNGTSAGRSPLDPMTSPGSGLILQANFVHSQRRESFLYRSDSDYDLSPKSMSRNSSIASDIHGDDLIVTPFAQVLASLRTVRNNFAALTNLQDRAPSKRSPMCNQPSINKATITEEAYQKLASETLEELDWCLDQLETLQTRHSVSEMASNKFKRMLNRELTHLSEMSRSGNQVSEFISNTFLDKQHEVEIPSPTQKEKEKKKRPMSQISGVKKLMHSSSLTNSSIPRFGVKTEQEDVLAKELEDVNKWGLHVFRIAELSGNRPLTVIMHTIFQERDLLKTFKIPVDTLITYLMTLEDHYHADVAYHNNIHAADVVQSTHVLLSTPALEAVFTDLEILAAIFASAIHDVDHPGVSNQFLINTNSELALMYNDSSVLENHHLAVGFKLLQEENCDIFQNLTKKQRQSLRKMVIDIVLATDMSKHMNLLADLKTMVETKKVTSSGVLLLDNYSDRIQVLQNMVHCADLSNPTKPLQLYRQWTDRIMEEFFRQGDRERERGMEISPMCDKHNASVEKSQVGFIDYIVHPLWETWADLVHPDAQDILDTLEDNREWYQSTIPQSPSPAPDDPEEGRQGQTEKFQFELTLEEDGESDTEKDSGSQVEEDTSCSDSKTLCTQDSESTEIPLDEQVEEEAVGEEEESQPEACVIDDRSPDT

[10] = biological target: Sodium-dependent noradrenaline transporter (Homo sapiens, UniProt P23975)
Sequence of Sodium-dependent noradrenaline transporter (P23975 whole entry): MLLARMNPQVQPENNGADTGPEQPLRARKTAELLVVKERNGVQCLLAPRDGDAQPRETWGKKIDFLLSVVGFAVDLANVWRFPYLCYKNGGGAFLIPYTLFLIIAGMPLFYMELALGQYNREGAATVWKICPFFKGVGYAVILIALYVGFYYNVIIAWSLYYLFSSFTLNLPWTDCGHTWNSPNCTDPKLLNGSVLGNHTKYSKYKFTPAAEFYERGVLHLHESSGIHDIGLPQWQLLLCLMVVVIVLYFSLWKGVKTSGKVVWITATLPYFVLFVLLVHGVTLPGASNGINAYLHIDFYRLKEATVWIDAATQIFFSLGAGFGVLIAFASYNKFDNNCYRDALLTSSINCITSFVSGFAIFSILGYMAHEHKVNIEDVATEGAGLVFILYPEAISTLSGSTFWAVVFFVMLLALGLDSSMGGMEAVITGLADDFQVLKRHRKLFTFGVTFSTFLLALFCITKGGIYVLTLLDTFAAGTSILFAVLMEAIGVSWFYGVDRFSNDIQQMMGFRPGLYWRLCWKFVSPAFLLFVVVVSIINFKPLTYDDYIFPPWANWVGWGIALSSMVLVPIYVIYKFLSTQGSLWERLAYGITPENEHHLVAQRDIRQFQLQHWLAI

[11] = biological target: D(3) dopamine receptor (Homo sapiens, UniProt P35462)
Sequence of D(3) dopamine receptor (P35462 whole entry): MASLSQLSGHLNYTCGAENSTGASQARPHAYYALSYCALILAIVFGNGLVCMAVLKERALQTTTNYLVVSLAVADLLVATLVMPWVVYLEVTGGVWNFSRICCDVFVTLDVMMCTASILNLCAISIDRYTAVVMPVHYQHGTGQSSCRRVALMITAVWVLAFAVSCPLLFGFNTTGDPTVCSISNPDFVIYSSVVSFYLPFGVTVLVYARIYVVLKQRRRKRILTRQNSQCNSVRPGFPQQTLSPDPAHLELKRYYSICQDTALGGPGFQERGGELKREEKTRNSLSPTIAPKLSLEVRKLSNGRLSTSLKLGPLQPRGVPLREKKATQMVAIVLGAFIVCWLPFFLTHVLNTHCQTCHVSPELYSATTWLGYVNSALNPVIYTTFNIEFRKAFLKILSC

[12] = biological target: Histamine H3 receptor (Homo sapiens, UniProt Q9Y5N1)
Sequence of Histamine H3 receptor (Q9Y5N1 whole entry): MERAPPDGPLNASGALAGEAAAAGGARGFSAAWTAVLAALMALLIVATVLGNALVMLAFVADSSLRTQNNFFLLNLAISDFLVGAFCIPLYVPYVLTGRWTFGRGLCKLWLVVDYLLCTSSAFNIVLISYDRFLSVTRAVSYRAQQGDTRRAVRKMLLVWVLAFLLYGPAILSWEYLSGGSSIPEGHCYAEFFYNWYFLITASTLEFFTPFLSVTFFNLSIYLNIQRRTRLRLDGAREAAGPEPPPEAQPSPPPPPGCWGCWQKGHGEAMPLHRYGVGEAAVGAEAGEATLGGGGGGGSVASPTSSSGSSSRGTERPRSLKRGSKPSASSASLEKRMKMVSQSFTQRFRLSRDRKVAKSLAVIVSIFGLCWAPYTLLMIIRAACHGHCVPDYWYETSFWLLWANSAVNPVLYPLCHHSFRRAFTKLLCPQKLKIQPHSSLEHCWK
Note: assay procedure not described here.

SMILES	AC50 [1] [µM]	AC50 [2] [µM]	AC50 [3] [µM]	AC50 [4] [µM]	AC50 [5] [µM]	AC50 [6] [µM]	AC50 [7] [µM]	AC50 [8] [µM]	AC50 [9] [µM]	AC50 [10] [µM]	AC50 [11] [µM]	AC50 [12] [µM]
COc1ccc(-c2ccc3cc(C(=O)O)ccc3c2)cc1C12CC3CC(CC(C3)C1)C2	> 30	> 30	> 30	1.5	> 30	> 30	> 30	> 30	> 30	> 30	> 30	> 30
COc1ccccc1N1CCN(CCCNc2cc(=O)n(C)c(=O)n2C)CC1	> 30	0.8	> 30	> 30	> 30	> 30	> 30	> 30	> 10	> 30	1.4	> 30
CCOC(=O)[C@H](CCc1ccccc1)N[C@@H](C)C(=O)N1C(=O)N(C)C[C@H]1C(=O)O	> 30	> 30	> 30	> 30	> 30	> 30	> 30	> 30	> 30	> 30	> 30	> 30
CC(C)(C)C(=O)Oc1ccc(S(=O)(=O)Nc2ccccc2C(=O)NCC(=O)O)cc1	> 30	> 30	> 30	> 30	> 30	> 30	> 30	> 30	> 30	> 30	> 30	> 30
O=C(O)CCCCCCNC1c2ccccc2CCc2ccccc21 [AMINEPTINE]	> 30	> 30	> 30	> 30	> 30	0.17	> 30	> 30	> 30	> 30	> 30	> 30
COc1ccccc1OCCNCC(O)c1ccc(C)c(S(N)(=O)=O)c1 (stereo not given) [AMOSULALOL]	> 30	0.1	> 30	> 30	> 30	> 30	> 30	> 30	6.7	> 30	0.12	> 30
COC(=O)C1=C(C)NC(C)=C(C(=O)OC2CCCN(Cc3ccccc3)C2)C1c1cccc([N+](=O)[O-])c1 (stereo not given) [BENIDIPINE]	> 30	> 30	> 30	0.014	18	> 30	> 30	> 30	7.1	13	16	> 30
CC(=O)OCC(=O)[C@@]12N=C(C)O[C@@H]1C[C@H]1[C@@H]3CCC4=CC(=O)C=C[C@]4(C)[C@H]3[C@@H](O)C[C@@]12C [DEFLAZACORT]	> 30	> 30	> 30	> 30	> 30	> 30	> 30	> 30	> 30	> 30	> 30	> 30
CCCCCCOc1ccccc1C(N)=O [EXALAMIDE]	> 30	> 30	> 30	> 30	> 30	> 30	> 30	> 30	> 30	> 30	> 30	> 30
COc1ccc(CCN(C)CCCC(C#N)(c2cc(OC)c(OC)c(OC)c2)C(C)C)cc1OC (stereo not given) [GALLOPAMIL]	> 30	> 30	> 30	–	> 30	5	> 30	> 30	9.2	> 30	3.3	> 30
CC(C)C(=O)c1c(C(C)C)nn2ccccc12 [IBUDILAST]	20	> 30	> 30	> 30	> 30	> 30	> 30	> 30	0.4	> 30	> 30	> 30
CCC(C(=O)O)c1ccc(N2Cc3ccccc3C2=O)cc1 (stereo not given) [INDOBUFEN]	> 30	> 30	> 30	> 30	> 30	> 30	> 30	> 30	> 30	> 30	> 30	> 30
CN1C(=O)C(O)N=C(c2ccccc2Cl)c2cc(Cl)ccc21 (stereo not given) [LORMETAZEPAM]	> 30	> 30	> 30	> 30	> 30	> 30	> 30	> 30	5.6	> 30	> 30	> 30
CCOC(=O)[N-]c1cn(N2CCOCC2)n[o+]1 [MOLSIDOMINE]	> 30	> 30	> 30	> 30	> 30	> 30	> 30	> 30	> 30	> 30	> 30	> 30
OC(CNCC(O)C1CCc2cc(F)ccc2O1)C1CCc2cc(F)ccc2O1 (stereo not given) [NEBIVOLOL]	> 30	0.07	> 30	24	19	20	> 30	3.3	> 30	1.5	2	23
Cc1ccc(-n2nccn2)c(C(=O)N2CCN(c3nc4cc(Cl)ccc4o3)CC[C@H]2C)c1 [SUVOREXANT]	> 30	> 30	> 30	–	> 30	> 30	> 30	> 30	> 30	> 30	> 30	> 30
